Measured values taken from patent US11033535B2, “Oxadiazoles and thiadiazoles as TGF-β inhibitors” (Southern Research Institute, priority 2017, dated 2021).
Read-outs that look alike come from different tables or passages of the source.

Assay: Pharmacokinetic evaluation following a single oral and intravenous administration
Assay type: in vivo, CD1 mouse
Conditions: CD1, mouse, plasma; for C0 / AUC(0-inf) / AUC(0-t) / MRT inf / half-life / Vd: Table 4, IV Dose: 1 mg/kg
Protocol: A NMP stock solution was prepared by adding 1.136 mL of NMP to 5.68 mg of compound no. 42140 with vortexing and sonification, to obtain a solution with a concentration at 5 mg/mL of 42140:01. Next, to prepare an intravenous formulation, 0.100 mL of the 5 mg/mL stock solution was placed in a new vial. 0.100 mL of NMP and 0.400 mL of PEG400 were added with vortexing and sonification, followed by addition of 0.400 mL of saline with vortexing and sonification. […] 42140:01. Alternatively, to prepare an oral formulation, 0.200 mL of the 5 mg/mL stock solution was placed in a new vial. 0.400 mL of PEG400 was added with vortexing and sonification, followed by addition of 0.400 mL of saline with vortexing and sonifiction. […] 42140:01.
(§1) Briefly, the desired serial concentrations of working solutions were achieved by diluting a stock solution of the compound with 100% acetonitrile. 3 μL of working solutions (5, 10, 20, 50, 100, 500, 1000, 5000, 10000 ng/mL) were added to 30 μL of the blank CD1 mouse plasma to achieve calibration standards of 0.5-1000 ng/mL (0.5, 1, 2, 5, 10, 50, 100, 500, 1000 ng/mL) in a total volume of 33 μL. Five quality control samples at 1 ng/mL, 2 ng/mL, 5 ng/mL, 50 ng/mL and 800 ng/mL for plasma were prepared independently of those used for the calibration curves. These QC samples were prepared on the day of analysis in the same way as calibration standards.
Next, 33 μL standards, 33 μL QC samples, and 33 μL unknown samples (30 μL plasma with 3 μL blank solution) were added to 200 μL of acetonitrile containing IS mixture for precipitating protein, respectively. Then the samples were vortexed for 30 s. After centrifugation at 4 degree Celsius, 4000 rpm for 15 min, 3 μL of supernatant was injected into the LC/MS/MS system for quantitative analysis.
HPLC analysis was performed using 100% water with 0.1% formic acid (Solution A) and 100% acetonitrile with 0.1% formic acid (Solution B) with a flow rate of 0.6 mL/min.
A NMP stock solution was prepared by adding 2.092 mL of NMP to 10.46 mg of […] with vortexing and sonification, to obtain a solution with a concentration at 5 mg/mL of […]. Next, to prepare an intravenous formulation, 0.100 mL of the 5 mg/mL stock solution was placed in a new vial. 0.100 mL of NMP and 0.400 mL of PEG400 were added with vortexing and sonification, followed by addition of 0.400 mL of saline with vortexing and sonification. […] 42320:01. Alternatively, to prepare an oral formulation, 0.200 mL of the 5 mg/mL stock solution was placed in a new vial. 0.400 mL of PEG400 was added with vortexing and sonification, followed by addition of 0.400 mL of saline with vortexing and sonifiction. […] 42320:01.
as §1, with “50 ng/mL,” for “50 ng/mL”

[1] = iv, 1 mg/kg, Table 3, IV Dose: 1 mg/kg, Mouse 1, read-out: Concentration
[2] = iv, 1 mg/kg, Table 3, IV Dose: 1 mg/kg, Mouse 2, read-out: Concentration
[3] = iv, 1 mg/kg, Table 3, IV Dose: 1 mg/kg, Mouse 3, read-out: Concentration
[4] = iv, 1 mg/kg, Table 3, IV Dose: 1 mg/kg, mean, read-out: Concentration, Mean
[5] = po, 5 mg/kg, Table 5, PO Dose: 5 mg/kg, Mouse 4, read-out: Concentration
[6] = po, 5 mg/kg, Table 5, PO Dose: 5 mg/kg, Mouse 5, read-out: Concentration
[7] = po, 5 mg/kg, Table 5, PO Dose: 5 mg/kg, Mouse 6, read-out: Concentration
[8] = po, 5 mg/kg, Table 5, PO Dose: 5 mg/kg, mean, read-out: Concentration, Mean

CNCc1ccc(C[C@H](NC(C)=O)c2nnc(-c3cccc(OC(F)(F)F)c3)s2)cc1 [Compound 42140, N-(2-(4-((methylamino)methyl)phenyl)-1-(5-(3-(trifluoromethoxy)phenyl)-1,3,4-thiadiazol-2-yl)ethyl)acetamide] gave a concentration at 5 min [1] of 96.6 ng/mL, a concentration at 5 min [2] of 89.5 ng/mL and a concentration at 5 min [3] of 86.3 ng/mL. For the same compound, the concentration at 5 min [4] was 90.8 ng/mL, the concentration at 0.25 h [1] was 81.5 ng/mL and the concentration at 0.25 h [2] was 65 ng/mL. The concentration at 0.25 h [3] was 74.2 ng/mL, the concentration at 0.25 h [4] was 73.6 ng/mL and the concentration at 0.5 h [1] was 57.2 ng/mL. The concentration at 0.5 h [2] was 53.8 ng/mL, the concentration at 0.5 h [3] was 48.1 ng/mL and the concentration at 0.5 h [4] was 53 ng/mL. For the same compound, the concentration at 1 h [1] was 57.8 ng/mL, the concentration at 1 h [2] was 42.1 ng/mL and the concentration at 1 h [3] was 43.7 ng/mL. For the same compound, the concentration at 1 h [4] was 47.9 ng/mL, the concentration at 2 h [1] was 43.7 ng/mL and the concentration at 2 h [2] was 34.1 ng/mL. The concentration at 2 h [3] was 39.9 ng/mL, the concentration at 2 h [4] was 39.2 ng/mL and the concentration at 4 h [1] was 26.1 ng/mL. The concentration at 4 h [2] was 18.8 ng/mL, the concentration at 4 h [3] was 23.3 ng/mL and the concentration at 4 h [4] was 22.7 ng/mL. It also gave a concentration at 8 h [1] of 16.9 ng/mL, a concentration at 8 h [2] of 15.5 ng/mL and a concentration at 8 h [3] of 14.9 ng/mL. It also gave a concentration at 8 h [4] of 15.8 ng/mL, a concentration at 24 h [1] of 6.4 ng/mL and a concentration at 24 h [2] of 5.76 ng/mL. It also gave a concentration at 24 h [3] of 4.27 ng/mL, a concentration at 24 h [4] of 5.48 ng/mL and a C0 (iv, 1 mg/kg, Mouse 1) of 105 ng/mL. For the same compound, the AUC(0-inf) (iv, 1 mg/kg, Mouse 1, read-out: AUCInf) was 557 ng·h/mL, the AUC(0-t) (iv, 1 mg/kg, Mouse 1, read-out: AUClast) was 462 ng·h/mL and the MRT inf (iv, 1 mg/kg, Mouse 1, read-out: MRTInf—obs) was 12.1 h. For the same compound, the half-life (iv, 1 mg/kg, Mouse 1, read-out: T1/2 (converted)) was 10.3 h, the Vd (iv, 1 mg/kg, Mouse 1, read-out: Vss—obs) was 21.8 L/kg and the C0 (iv, 1 mg/kg, Mouse 2) was 105 ng/mL. The AUC(0-inf) (iv, 1 mg/kg, Mouse 2, read-out: AUCInf) was 486 ng·h/mL, the AUC(0-t) (iv, 1 mg/kg, Mouse 2, read-out: AUClast) was 389 ng·h/mL and the MRT inf (iv, 1 mg/kg, Mouse 2, read-out: MRTInf—obs) was 13.7 h. For the same compound, the half-life (iv, 1 mg/kg, Mouse 2, read-out: T1/2 (converted)) was 11.6 h, the Vd (iv, 1 mg/kg, Mouse 2, read-out: Vss—obs) was 28.1 L/kg and the C0 (iv, 1 mg/kg, Mouse 3) was 93 ng/mL. It also gave an AUC(0-inf) (iv, 1 mg/kg, Mouse 3, read-out: AUCInf) of 445 ng·h/mL, an AUC(0-t) (iv, 1 mg/kg, Mouse 3, read-out: AUClast) of 394 ng·h/mL and an MRT inf (iv, 1 mg/kg, Mouse 3, read-out: MRTInf—obs) of 9.69 h. For the same compound, the half-life (iv, 1 mg/kg, Mouse 3, read-out: T1/2 (converted)) was 8.36 h, the Vd (iv, 1 mg/kg, Mouse 3, read-out: Vss—obs) was 21.8 L/kg and the AUC(0-inf) (iv, 1 mg/kg, mean, read-out: AUCInf, Mean) was 496 ng·h/mL. The AUC(0-t) (iv, 1 mg/kg, mean, read-out: AUClast, Mean) was 415 ng·h/mL, the MRT inf (iv, 1 mg/kg, mean, read-out: MRTInf—obs, Mean) was 11.8 h and the half-life (iv, 1 mg/kg, mean, read-out: T1/2, Mean (converted)) was 10.1 h. It also gave a Vd (iv, 1 mg/kg, mean, read-out: Vss—obs, Mean) of 23.9 L/kg, a concentration at 0.25 h [5] of 54.5 ng/mL and a concentration at 0.25 h [6] of 60.6 ng/mL. It also gave a concentration at 0.25 h [7] of 73.1 ng/mL, a concentration at 0.25 h [8] of 62.7 ng/mL and a concentration at 0.5 h [5] of 92.2 ng/mL. It also gave a concentration at 0.5 h [6] of 91.9 ng/mL, a concentration at 0.5 h [7] of 106 ng/mL and a concentration at 0.5 h [8] of 97 ng/mL. For the same compound, the concentration at 1 h [5] was 117 ng/mL.
